Reference: patent publication US11464754B2, “Betaine for the prevention of obesity” (HOSPITAL SANT JOAN DE DEU, priority 2017, dated 2022)

Columns and labels:
[1] = Betaine levels and composition of dam milk, and offspring plasma betaine, after maternal betaine supplementation during lactation; type: in vivo, mice
Method: All animal protocols were approved by the Institutional Animal Care and Use Committee of the University of Barcelona (Spain). Mice were housed on a 12-hour light-dark cycle with free access to food and water. Male and female ICR-CD1 mice (Envigo) were mated to obtain progeny. To minimize growth variability, litters were adjusted to 8 pups per dam at birth removing heaviest and lightest mice. Glycine betaine (1% wt/vol), ampicilin (1 g/L), and neomycin (0.5 g/L) (Sigma-Aldrich) were administered in water during lactation. After weaning, mice were housed 4 per cage and fed the 2014 Teklad diet (Envigo). […] To assess milk intake, pups were separated from dams for 2 hours and returned to their cages for 1 hour; difference in body weight before and after the feeding was expressed as grams per initial body weight per hour. […] Body composition was determined by using a 7.0T Bruker Biospect MRI system (Bruker Medical Gmbh, Germany). Indirect calorimetry was measured in metabolic cages (PhenoMaster/LabMaster, TSE Systems GmbH, Germany); O2, CO2, food intake, and locomotor activity were monitored for 48 hours, and data analyzed using 2-way ANOVA for repeated measures. […]
Mouse milk samples were diluted 1:3 before macronutrient analysis by mid-infrared spectroscopy in a Miris Analyzer (Miris AB). […] Plasma insulin was determined by ELISA (Millipore). […]

ICR-CD1 mice [2] = experiment: Maternal betaine supplementation during lactation, lean dams: offspring growth, adiposity and metabolism on chow diet; type: in vivo
Method: (§1) All animal protocols were approved by the Institutional Animal Care and Use Committee of the University of Barcelona (Spain). Mice were housed on a 12-hour light-dark cycle with free access to food and water. Male and female ICR-CD1 mice (Envigo) were mated to obtain progeny. To minimize growth variability, litters were adjusted to 8 pups per dam at birth removing heaviest and lightest mice. Glycine betaine (1% wt/vol), ampicilin (1 g/L), and neomycin (0.5 g/L) (Sigma-Aldrich) were administered in water during lactation. After weaning, mice were housed 4 per cage and fed the 2014 Teklad diet (Envigo). For diet-induced obesity, a high-fat diet (HFD, 45% kcal from fat) was provided (D12451, Research Diets). For maternal obesity studies, 6-week-old females were fed HFD for 8 weeks before mating; this same diet was maintained through pregnancy and lactation. To assess milk intake, pups were separated from dams for 2 hours and returned to their cages for 1 hour; difference in body weight before and after the feeding was expressed as grams per initial body weight per hour. For milk harvesting, samples were collected manually under anesthesia (pentobarbital, 40 mg/kg) at day 14 after birth; dams and pups were sacrificed after milk collection, and cecal content obtained for microbiome studies. Body composition was determined by using a 7.0T Bruker Biospect MRI system (Bruker Medical Gmbh, Germany). Indirect calorimetry was measured in metabolic cages (PhenoMaster/LabMaster, TSE Systems GmbH, Germany); O2, CO2, food intake, and locomotor activity were monitored for 48 hours, and data analyzed using 2-way ANOVA for repeated measures. Intraperitoneal glucose (1.5 g/kg) and insulin (0.6 U/kg) tolerance test were performed after a 16 or 4 hour fast, respectively. Mice were anesthetized (intraperitoneal pentobarbital, 50 mg/kg) and sacrificed between 9-11 am.
(§2) Mouse milk samples were diluted 1:3 before macronutrient analysis by mid-infrared spectroscopy in a Miris Analyzer (Miris AB). Relative betaine concentrations were determined by liquid chromatography (Acquity UPLC BEH HILIC column, Waters) coupled to mass spectrometry (QqQ/MS 6490, Agilent). Plasma insulin was determined by ELISA (Millipore). Plasma MCP-1, IL-6 and PAI-1 were measured using Milliplex Map (EMD Millipore, Merck). Hepatic and fecal triglycerides were quantified in chloroform-methanol extracts from liver or feces (50 mg) using Triglyceride Assay Kit (Sigma-Aldrich).
(§3) Tissues were fixed by immersion in formalin, paraffin-embedded, and sections stained with hematoxylin/eosin. For WAT, adipocyte area was measured in 30 random microscopic fields per animal (10-20 cells/field). For ileum, cross-sectional cuts were stained with Periodic acid-Schiff (PAS) method. Ten villi per mouse from 5-6 sections were analyzed. Goblet cell number per villus was determined and expressed as number of cells per 100 μm. Analyses were performed using ImageJ by a researcher blinded to sample ID.
To study whether milk betaine modulates growth and obesity risk, we performed maternal supplementation experiments in mice exclusively during lactation. Dams were randomly assigned to control (C) or treatment (B, 1% betaine in water) groups the first day after delivery. Milk samples were collected at day 14 after birth from a subset of dams to determine betaine levels.
(§4) It was also investigated whether the above changes during early life translated into long-term metabolic improvements. Offspring was maintained on a chow diet after weaning and monitored up to 24 weeks of age. […] Consistent with lower adiposity, adipocyte size and inflammatory markers were decreased in male offspring from betaine-treated dams. […] Furthermore, basal insulin levels decreased by 40% in treatment compared to control group (p<0.05, FIG. 5D).

ICR-CD1 mice [3] = experiment: Maternal betaine supplementation during lactation in mouse model of maternal obesity; type: in vivo
Method: as §1
To test whether betaine interacts with maternal obesity, betaine supplementation was performed during lactation in a mouse model of maternal obesity. Dams were fed a high-fat diet (HFD) for 8 weeks before mating, and randomly assigned to control (MO-C) or betaine treatment (MO-B) groups at delivery. Supplementation was performed as described above.
as §4

ICR-CD1 mice [4] = experiment: Intestinal epithelium and inflammatory markers in 6-week-old offspring of betaine-treated dams; type: in vivo
Method: as §1, §2
Total RNA from tissues was isolated with TRI Reagent (Sigma-Aldrich) and cDNA obtained with High-capacity cDNA kit (Applied Biosystems). qPCR was performed with SybrGreen (Takara Bio), using Hprt as housekeeping gene. Primer sequences are the following:
as §3
These changes were accompanied by decreased mRNA levels of inflammatory markers (Ccl2, TIr4, Cd11c) in epididymal white adipose tissue (eWAT, FIG. 4B).

ICR-CD1 mice [5] = experiment: Diet-induced obesity (HFD for 16 weeks) in offspring of betaine-treated dams; type: in vivo
Method: as §1, §2
It was then tested whether this early-life intervention protected against diet-induced obesity. To this end, 6-week-old offspring of lean control or betaine-treated dams were fed a HFD for 16 weeks (HF-C and HF-B groups, respectively). […] Supplementation ameliorated glucose tolerance (FIG. 6B), and decreased fasting glucose (Time 0, FIG. 6B) and insulin levels (FIG. 6C). Hepatic triglyceride accumulation was reduced by 30% in the HF-B group (p<0.05, FIG. 6D).

[6] = adult male offspring, chow diet

C[N+](C)(C)CC(=O)O [betaine, glycine betaine]
increase of milk betaine content ([1]; dam milk at day 14 after birth, 1% betaine in water during lactation, vs control): 5 fold | increase of offspring plasma betaine ([1]; fourteen-day-old offspring of betaine-treated dams): 1.8 fold | glucose tolerance (ICR-CD1 mice [2]; adult female offspring): no effect | adipocyte size and inflammatory markers (ICR-CD1 mice [2]; [6]): decreased | decrease of basal insulin levels (ICR-CD1 mice [2]; adult male offspring, treatment vs control group): 40% | glucose tolerance (ICR-CD1 mice [2]; adult male offspring, week 20): notable improvement | blood glucose at each time point in insulin tolerance testing (ICR-CD1 mice [2]; adult males): significantly lower | response to insulin administration (ICR-CD1 mice [2]; adult males, insulin tolerance testing): no difference | hepatic triglyceride accumulation (ICR-CD1 mice [2]; adult offspring, chow diet): no significant effect | body weight gain and eWAT weight (ICR-CD1 mice [2]; female offspring, chow diet): no effect | offspring growth patterns during lactation (ICR-CD1 mice [2]; lean dams, 1% betaine in water): did not modulate | milk intake (ICR-CD1 mice [2]; lean dams, pups at 1 week of age): did not modulate | fat mass (ICR-CD1 mice [2]; male offspring at 6 weeks of age, vs control): decreased | eWAT weight (ICR-CD1 mice [2]; male offspring, chow diet, 24 weeks): decreased | body weight gain throughout adulthood (ICR-CD1 mice [2]; male offspring, chow diet, up to 24 weeks of age): lower | glucose tolerance, food intake, energy expenditure, respiratory exchange ratio, activity levels (ICR-CD1 mice [2]; young mice): did not differ | fat mass (ICR-CD1 mice [3]; 6 weeks of age, MO-B vs MO-C): trend towards lower | milk intake (ICR-CD1 mice [3]; MO-B vs MO-C): no differences | offspring growth during lactation (ICR-CD1 mice [3]; MO-B vs MO-C, obese dams): moderated | basal insulin levels (ICR-CD1 mice [3]; adult male offspring): decreased | glucose tolerance (ICR-CD1 mice [3]; adult male offspring): improved | body weight and adiposity (ICR-CD1 mice [3]; [6]): lower | mRNA levels of inflammatory markers (Ccl2, Tlr4, Cd11c) in eWAT (ICR-CD1 mice [4]; six-week-old male offspring): decreased | circulating levels of IL-6 (ICR-CD1 mice [4]; six-week-old male offspring, p<0.05): decreased | circulating levels of MCP-1 (ICR-CD1 mice [4]; six-week-old male offspring, p=0.08): numerical decrease | circulating levels of PAI-1 (ICR-CD1 mice [4]; six-week-old male offspring, p=0.25): numerical decrease | expression of Ccl2 in brown adipose, liver, and skeletal muscle (ICR-CD1 mice [4]; six-week-old offspring): decreased | ileal Muc2 mRNA expression (ICR-CD1 mice [4]; six-week-old offspring): increased | ileal villi length (ICR-CD1 mice [4]; six-week-old offspring): no differences | increase of ileal goblet cell number (ICR-CD1 mice [4]; six-week-old offspring): 1.3 fold | reduction of hepatic triglyceride accumulation (ICR-CD1 mice [5]; HF-B group vs HF-C, male mice): 30% | fecal lipid content (ICR-CD1 mice [5]; HFD): no differences | cumulative food intake (ICR-CD1 mice [5]; HFD, did not reach statistical significance): modest numerical decrease | body weight gain (ICR-CD1 mice [5]; male and female offspring on HFD, HF-B vs HF-C): lower | insulin levels (ICR-CD1 mice [5]; male mice on HFD): decreased | glucose tolerance (ICR-CD1 mice [5]; male mice on HFD, 18 weeks of life): ameliorated | fasting glucose (ICR-CD1 mice [5]; male mice on HFD, Time 0): decreased
